Patent US11999697B2, “Methods and compositions for inhibition of dihydroorotate dehydrogenase” (OHIO STATE INNOVATION FOUNDATION, priority 2018, dated 2024)
Like-named read-outs stand apart in the source and are kept apart here.

Experiments:
[1] = tested on: IDH2-R140Q/Flt3-ITD spleen cells (murine AML); assay: IDH2-R140Q/Flt3-ITD adoptive transfer model; type: in vivo, NCG mice
Source text: Leukemic cells derived from a spontaneous murine model of Idh2/Flt3 AML, as reported by Shih et al (Cancer Discov. 7(5):494-505), were engrafted via adoptive transfer to generate an aggressive model of AML suitable for testing of therapeutic agents. Briefly, 6-8 week old mice harboring a heterozygous internal tandem duplication of FMS-like tyrosine kinase 3 (Flt3-ITD), a heterozygous point mutation of isocitrate dehydrogenase 2 (Idh2-R140Q) preceeded by a loxP flanked STOP codon, and Cre recombinase under the MX dynamin like GTPase 1 (Mx1) promoter were injected i.p. with polyinosinic:polycytidylic acid (poly(I:C)), activating Cre recombinase and inducing hematopoietic-specific expression of the Idh2-R140Q mutation. Spleen cells from these mice were collected after the development of lethal AML (defined by study removal criteria), typically 8-14 months post-poly(I:C) injection. 1×10^5 spleen cells from a single leukemic donor were engrafted by tail vein injection into 6 week old immune deficient NOD-Prkdc^em26Cd52//2rg^em26Cd22/NjuCrl mice (NCG; Charles River). At one week post-engraftment, animals were randomized to vehicle (5% EtOH, 10% Kolliphor EL, in PBS), enasidenib (100 mg/kg), and HOSU-3 (50 mg/kg) treatment arms and dosed by daily oral gavage. Personnel responsible for animal monitoring, dosing, and decisions regarding euthanasia were blinded to treatment arms. Survival was assessed using Kaplan-Meier analysis and p-values were determined using the log-rank test and adjusted using Holm's method.

MV4-11 = assay: MTS cell proliferation assay, MV4-11; type: cell-based; details: for IC50: Homo sapiens, MV4-11, MTS
[2] = tested on: luciferase-expressing MOLM-13 cells; assay: MOLM13 xenograft study, 10 mg/kg; type: in vivo, NCG mice; details: 10 mg/kg oral gavage, three or five days per week, Days 7 and 14
Experimental: The effect of a representative disclosed compound, Cpd3, on in vivo tumor growth was assessed in a MOLM13 xenograft study. Briefly, male NCG (NOD-Prkdc^em26Cd52//2rg^em26Cd22/NjuCrl) mice (N=12 per group) were given an intravenous injection of 1×10^4 luciferase-expressing MOLM-13 cells. […] Therefore at 3 days post-engraftment (day 0 treatment), mice were injected with luciferin, imaged for leukemia burden, and began dosing with Cpd3 (10 mg/kg daily by oral gavage) or vehicle control (15% ethanol, 30% PEG-400 in PBS). Mice were treated on two different dosing schedules: Cpd3 three days per week (Mon, Wed and Fri) or five days per week (Mon through Fri). Mice on the Mon, Wed, Fri schedule received a vehicle on Tues and Thurs, so that all mice were consistently gavaged five days per week. In addition to day 0, mice were monitored once weekly (days 7 and 14 post-treatment) by IVIS imaging. In order to assess tumor burden, mice were injected with luciferin and imaged on an IVIS imager Days 0, 7, and 14. […] The data for tumor burden at Day 7 (FIG. 11B) and Day 14 (FIG. 11C) is summarized in bar graph format.

[3] = tested on: p53 signaling pathway in MOLM13, MV4-11, OCI-AML3; assay: Immunoblots for MDM2, p53, p-γH2AX, p21 in AML cell lines; type: cell-based; details: 1 μM, 24 hours
Experimental: FIGS. 6A-6F show representative data and analysis for the effect of a representative disclosed compound, Cpd3, on the inhibition of MDM2. FIGS. 6A-6C show representative immunoblots for cells following vehicle treatment, treatment with a representative disclosed compound, Cpd3, or treatment with a reference compound, brequinar (indicated as “BQR” in the figures) using methods as described herein above. Briefly, AML cell lines were treated with vehicle, 1 μM Cpd3 or 1 μM BQR for 24 hours. Lysates were prepared and immunoblots were performed for MDM2, p53, p-γH2AX, p21 and GAPDH used as loading controls. […] That is, Cpd3 promotes a p53 response evident by both upregulation of the downstream target p21, with compensatory induction of MDM2. […] These preliminary data validate that Cpd3 is a potent inhibitor of DHODH in AML, and further preclinical development of Cpd3 is warranted.

MOLM-13 = assay: MTS cell proliferation assay, MOLM-13; type: cell-based; details: Homo sapiens, 96 hours
Experimental: (§1) Triplicate wells were set up for each condition.
(§2) The assays were carried out in a blinded fashion.

[4] = tested on: AML cell lines (MOLM13, MV4-11, OCI-AML3); assay: Formal synergy analysis (Combenefit, BLISS) with MDM2 inhibitor AMG-232; type: cell-based; details: Cpd3 0-10 μM with AMG-232 0-10 μM
Experimental: FIGS. 6D-6F show formal synergy analysis following treatment of different cell-lines (as indicated below) with a representative disclosed compound, Cpd3 (0-10 μM), in the presence or absence of an MDM2 inhibitor, AMG-232 (0-10 μM). The formal synergy analysis was carried out using the Combenefit analysis program (Cambridge Research UK, Cambridge Institute, University of Cambridge, United Kingdom; see also Di Veroli G Y, et al. Bioinformatics. 2016; 32:2866-2868). Combenefit analysis software uses the Loewe, Bliss, and HSA (Highest Single Agent) models to generate surface analyses with statistical significance and global metrics/scores. Data shown for the cell-lines in FIGS. 6D-6F were obtained using the BLISS analysis.

HL-60 = assay: MTS cell proliferation assay, HL-60; type: cell-based; details: Homo sapiens, 96 hours
Experimental: as §1, §2

SMILES: CCOc1ccc(-c2ccc(-c3cc(C(=O)O)c4cc(F)ccc4n3)cc2)cc1 [Cpd3, 2-(4′-ethoxy-[1,1′-biphenyl]-4-yl)-6-fluoroquinoline-4-carboxylic acid]
- survival compared to vehicle and enasidinib treatment groups ([1]; 50 mg/kg once daily): significant improvement in survival
- Median survival ([1]; daily oral gavage, Cpd3 50 mg/kg, enasidenib 100 mg/kg): 42 days
- rescue of cytotoxic effects by uridine (MV4-11; 0.25 or 0.5 μM compound, uridine 0 to 200 μM, 96 hours): rescued by growth in the presence of uridine
- IC50 (MV4-11; 96 hour, Table 7, read-out: 96 hour IC50 (nM) in MV-411 cell line): ~500 nM
- IC50 (MV4-11; 96 hours, read-out: IC50 (μM) at 96 hours, MV4-11): 670 nM
- tumor burden (luciferase expression by IVIS imaging) [2]: able to reduce the tumor burden in the mice
- induction of p53 signaling pathway and DNA damage [3]: induces the p53 signaling pathway and DNA damage
- IC50 (MOLM-13): 0.4 µM
- synergy with MDM2 inhibitor AMG-232 [4]: synergistic cell killing in AML cell lines
- IC50 (HL-60): 0.28 µM
